# Experiments:
# Format in all cases: cell-based
# [1] = test system: Citrobacter diversus; experiment: MIC against Gram-negative bacteria: Citrobacter diversus; conditions: for MIC C. diversus / MIC against C. diversus / MIC (μg/mL) C. diversus: 5×10^5 CFU/mL
# How it was run: (§1)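 Broth microdilution, LB medium, final inoculum 5×10^5 CFU/mL from McFarland 0.5 cultures. Recombinant human EGF domain proteins tested in two-fold steps, n=3. MIC: lowest concentration, no growth.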
# [2] = test system: Enterobacter cloacae; experiment: MIC against Gram-negative bacteria: Enterobacter cloacae; conditions: for MIC E. cloacae / MIC against E. cloacae / MIC (μg/mL) E. cloacae: 5×10^5 CFU/mL
# How it was run: as §1
# [3] = test system: Klebsiella pneumonia; experiment: MIC against Gram-negative bacteria: Klebsiella pneumonia; conditions: for MIC K. pneumonia / MIC against K. pneumonia / MIC (μg/mL) K. pneumonia: 5×10^5 CFU/mL
# How it was run: as §1
# [4] = test system: E. coli DH5α; experiment: Antibacterial activity: MIC and growth curve against E. coli DH5α in 96-well plate; conditions: minimal inhibitory concentration against E. coli DH5α; 96-well plate, 5×10^5 CFU/mL, 37° C., judged after 8 h
# How it was run: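 Log-phase bacteria (OD600 ~0.5) resuspended in LB at 5×10^5 CFU/mL, exposed to recombinant protein at 50, 25, 12.5 μg/mL final in triplicate, 37 °C shaking at 175 rpm. OD600 read every 30 min; MIC is lowest concentration showing no growth.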
# [5] = test system: Pseudomonas aeruginosa; experiment: MIC against Gram-negative bacteria: Pseudomonas aeruginosa; conditions: for MIC P. aeruginosa / MIC against P. aeruginosa / MIC (μg/mL) P. aeruginosa: 5×10^5 CFU/mL
# How it was run: as §1
# [6] = test system: Proteus vulgaris; experiment: MIC against Gram-negative bacteria: Proteus vulgaris; conditions: for MIC P. vulgaris / MIC against P. vulgaris / MIC (μg/mL) P. vulgaris: 5×10^5 CFU/mL
# How it was run: as §1
# [7] = test system: Proteus mirabilis; experiment: MIC against Gram-negative bacteria: Proteus mirabilis; conditions: for MIC P. mirabilis / MIC against P. mirabilis / MIC (μg/mL) P. mirabilis: 5×10^5 CFU/mL
# How it was run: as §1
# [8] = test system: Aeromonas hydrophila; experiment: MIC against Gram-negative bacteria: Aeromonas hydrophila; conditions: for MIC A. hydrophila / MIC against A. hydrophila / MIC (μg/mL) A. hydrophila: 5×10^5 CFU/mL
# How it was run: as §1
# [9] = test system: Moraxella catarrhalis; experiment: MIC against Gram-negative bacteria: Moraxella catarrhalis; conditions: for MIC M. catarrhalis / MIC against M. catarrhalis / MIC (μg/mL) M. catarrhalis: 5×10^5 CFU/mL
# How it was run: as §1
# [10] = test system: E. coli BL21; experiment: MIC against Gram-negative bacteria: E. coli BL21; conditions: for MIC E. coli BL21 / MIC against E. coli BL21 / MIC (μg/mL) E. coli BL21: 5×10^5 CFU/mL
# How it was run: as §1
# [11] = test system: Serratia marcescens; experiment: MIC against Gram-negative bacteria: Serratia marcescens; conditions: for MIC S. marcescens / MIC against S. marcescens / MIC (μg/mL) S. marcescens: 5×10^5 CFU/mL
# How it was run: as §1
# [12] = 10 h cultivation at 37° C., two-fold serial dilution
# [13] = C. diversus, 10 h cultivation at 37° C.
# [14] = E. cloacae, 10 h cultivation at 37° C.
# [15] = K. pneumonia, 10 h cultivation at 37° C.
# [16] = P. aeruginosa, 10 h cultivation at 37° C.
# [17] = P. vulgaris, 10 h cultivation at 37° C.
# [18] = P. mirabilis, 10 h cultivation at 37° C.
# [19] = A. hydrophila, 10 h cultivation at 37° C.
# [20] = M. catarrhalis, 10 h cultivation at 37° C.
# [21] = E. coli BL21, 10 h cultivation at 37° C.
# [22] = S. marcescens, 10 h cultivation at 37° C.
# [23] = Citrobacter diversus, 96-well plate, 37° C., 10 h
# [24] = Enterobacter cloacae, 96-well plate, 37° C., 10 h
# [25] = Klebsiella pneumonia, 96-well plate, 37° C., 10 h
# [26] = Pseudomonas aeruginosa, 96-well plate, 37° C., 10 h
# [27] = Proteus vulgaris, 96-well plate, 37° C., 10 h
# [28] = Proteus mirabilis, 96-well plate, 37° C., 10 h
# [29] = Aeromonas hydrophila, 96-well plate, 37° C., 10 h
# [30] = Moraxella catarrhalis, 96-well plate, 37° C., 10 h
# [31] = E. coli BL21, 96-well plate, 37° C., 10 h
# [32] = Serratia marcescens, 96-well plate, 37° C., 10 h
substance,measurement,setting,value
PRT1173 (KCIPHPGCVHGICNEPWQCLCETNWGGQLCD; listed as Homo sapiens),MIC C. diversus,[1]; [12],50 µg/mL
same,MIC E. cloacae,[2]; [12],12.5 µg/mL
same,MIC K. pneumonia,[3]; [12],25 µg/mL
same,MIC,[4],12.5 µg/mL
same,MIC P. aeruginosa,[5]; [12],12.5 µg/mL
same,MIC P. vulgaris,[6]; [12],12.5 µg/mL
same,MIC P. mirabilis,[7]; [12],50 µg/mL
same,MIC A. hydrophila,[8]; [12],12.5 µg/mL
same,MIC M. catarrhalis,[9]; [12],12.5 µg/mL
same,MIC E. coli BL21,[10]; [12],25 µg/mL
same,MIC S. marcescens,[11]; [12],50 µg/mL
PRT1015 (DVNECFQDPGPCPKGTSCHNTLGSFQCLCPVGQEGPRCE; listed as Homo sapiens),MIC,[1]; [13],50 µg/mL
same,MIC,[2]; [14],12.5 µg/mL
same,MIC,[3]; [15],50 µg/mL
same,MIC,[4],12.5 µg/mL
same,MIC,[5]; [16],12.5 µg/mL
same,MIC,[6]; [17],12.5 µg/mL
same,MIC,[7]; [18],50 µg/mL
same,MIC,[8]; [19],25 µg/mL
same,MIC,[9]; [20],12.5 µg/mL
same,MIC,[10]; [21],50 µg/mL
same,MIC,[11]; [22],50 µg/mL
PRT913 (VINGCKGKPCKNGGTCAVASNTARGFICKCPAGFEGATCE; listed as Homo sapiens),MIC,[1]; [13],25 µg/mL
same,MIC,[2]; [14],12.5 µg/mL
same,MIC,[3]; [15],25 µg/mL
same,MIC,[4],12.5 µg/mL
same,MIC,[5]; [16],50 µg/mL
same,MIC,[6]; [17],12.5 µg/mL
same,MIC,[7]; [18],25 µg/mL
same,MIC,[8]; [19],25 µg/mL
same,MIC,[9]; [20],50 µg/mL
same,MIC,[10]; [21],25 µg/mL
same,MIC,[11]; [22],50 µg/mL
PRT610 (CSCDPSGSIDECNIETGRCVCKDNVEGFNCERCKPGFFNLESSNPRGCTP; listed as Homo sapiens),MIC C. diversus,"[1]; 96-well plate, 37° C., 10 h",50 µg/mL
same,MIC E. cloacae,"[2]; 96-well plate, 37° C., 10 h",50 µg/mL
same,MIC K. pneumonia,"[3]; 96-well plate, 37° C., 10 h",25 µg/mL
same,MIC,[4],50 µg/mL
same,MIC P. aeruginosa,"[5]; 96-well plate, 37° C., 10 h",12.5 µg/mL
same,MIC P. vulgaris,"[6]; 96-well plate, 37° C., 10 h",12.5 µg/mL
same,MIC P. mirabilis,"[7]; 96-well plate, 37° C., 10 h",50 µg/mL
same,MIC A. hydrophila,"[8]; 96-well plate, 37° C., 10 h",12.5 µg/mL
same,MIC M. catarrhalis,"[9]; 96-well plate, 37° C., 10 h",12.5 µg/mL
same,MIC E. coli BL21,"[10]; 96-well plate, 37° C., 10 h",25 µg/mL
same,MIC S. marcescens,"[11]; 96-well plate, 37° C., 10 h",50 µg/mL
PRT1026 (NKETCEHNHRQCSRHAFCTDYATGFCCHCQSKFYGNGKHCL; listed as Homo sapiens),MIC,[1]; [13],12.5 µg/mL
same,MIC,[2]; [14],12.5 µg/mL
same,MIC,[3]; [15],25 µg/mL
same,MIC,[4],12.5 µg/mL
same,MIC,[5]; [16],50 µg/mL
same,MIC,[6]; [17],25 µg/mL
same,MIC,[7]; [18],12.5 µg/mL
same,MIC,[8]; [19],50 µg/mL
same,MIC,[9]; [20],50 µg/mL
same,MIC,[10]; [21],25 µg/mL
same,MIC,[11]; [22],50 µg/mL
PRT458 (ECSRLCRNGYCTPTGKCCCSPGWEGDFC; listed as Homo sapiens),MIC against C. diversus,"[1]; 96-well plate, 37° C., 10 h",12.5 µg/mL
same,MIC against E. cloacae,"[2]; 96-well plate, 37° C., 10 h",12.5 µg/mL
same,MIC against K. pneumonia,"[3]; 96-well plate, 37° C., 10 h",12.5 µg/mL
same,MIC,[4],50 µg/mL
same,MIC against P. aeruginosa,"[5]; 96-well plate, 37° C., 10 h",12.5 µg/mL
same,MIC against P. vulgaris,"[6]; 96-well plate, 37° C., 10 h",25 µg/mL
same,MIC against P. mirabilis,"[7]; 96-well plate, 37° C., 10 h",12.5 µg/mL
same,MIC against A. hydrophila,"[8]; 96-well plate, 37° C., 10 h",25 µg/mL
same,MIC against M. catarrhalis,"[9]; 96-well plate, 37° C., 10 h",25 µg/mL
same,MIC against E. coli BL21,"[10]; 96-well plate, 37° C., 10 h",12.5 µg/mL
same,MIC against S. marcescens,"[11]; 96-well plate, 37° C., 10 h",12.5 µg/mL
PRT6 (TRKLCSLDNGDCDQFCHEEQNSVVCSCARGYTLADNGKACI; listed as Homo sapiens),MIC (μg/mL) C. diversus,[1]; [23],25 µg/mL
same,MIC (μg/mL) E. cloacae,[2]; [24],25 µg/mL
same,MIC (μg/mL) K. pneumonia,[3]; [25],50 µg/mL
same,MIC,[4],50 µg/mL
same,MIC (μg/mL) P. aeruginosa,[5]; [26],25 µg/mL
same,MIC (μg/mL) P. vulgaris,[6]; [27],25 µg/mL
same,MIC (μg/mL) P. mirabilis,[7]; [28],12.5 µg/mL
same,MIC (μg/mL) A. hydrophila,[8]; [29],12.5 µg/mL
same,MIC (μg/mL) M. catarrhalis,[9]; [30],25 µg/mL
same,MIC (μg/mL) E. coli BL21,[10]; [31],50 µg/mL
same,MIC (μg/mL) S. marcescens,[11]; [32],25 µg/mL
PRT241 (DTDECQIAGVCQQMCVNYVGGFECYCSEGHELEADGISCS; listed as Homo sapiens),MIC (μg/mL) C. diversus,[1]; [13],12.5 µg/mL
same,MIC (μg/mL) E. cloacae,[2]; [14],12.5 µg/mL
same,MIC (μg/mL) K. pneumonia,[3]; [15],12.5 µg/mL
same,MIC,[4],12.5 µg/mL
same,MIC (μg/mL) P. aeruginosa,[5]; [16],12.5 µg/mL
same,MIC (μg/mL) P. vulgaris,[6]; [17],25 µg/mL
same,MIC (μg/mL) P. mirabilis,[7]; [18],12.5 µg/mL
same,MIC (μg/mL) A. hydrophila,[8]; [19],12.5 µg/mL
same,MIC (μg/mL) M. catarrhalis,[9]; [20],25 µg/mL
same,MIC (μg/mL) E. coli BL21,[10]; [21],12.5 µg/mL
same,MIC (μg/mL) S. marcescens,[11]; [22],50 µg/mL
PRT1285 (NQDDCRDHRCQNGAQCMDEVNSYSCLCAEGYSGQLCE; listed as Homo sapiens),MIC against C. diversus,[1]; [23],12.5 µg/mL
same,MIC against E. cloacae,[2]; [24],12.5 µg/mL
same,MIC against K. pneumonia,[3]; [25],100 µg/mL
same,MIC,[4],12.5 µg/mL
same,MIC against P. aeruginosa,[5]; [26],12.5 µg/mL
same,MIC against P. vulgaris,[6]; [27],12.5 µg/mL
same,MIC against P. mirabilis,[7]; [28],50 µg/mL
same,MIC against A. hydrophila,[8]; [29],25 µg/mL
same,MIC against M. catarrhalis,[9]; [30],25 µg/mL
same,MIC against E. coli BL21,[10]; [31],12.5 µg/mL
same,MIC against S. marcescens,[11]; [32],50 µg/mL
PRT1473 (SFLNCSLDNGGCTHYCLEEVGWRRCSCAPGYKLGDDLLQCH; listed as Homo sapiens),MIC against C. diversus,"[1]; Citrobacter diversus, 10 h cultivation at 37° C.",12.5 µg/mL
same,MIC against E. cloacae,"[2]; Enterobacter cloacae, 10 h cultivation at 37° C.",12.5 µg/mL
same,MIC against K. pneumonia,"[3]; Klebsiella pneumonia, 10 h cultivation at 37° C.",50 µg/mL
same,MIC,[4],12.5 µg/mL
same,MIC against P. aeruginosa,"[5]; Pseudomonas aeruginosa, 10 h cultivation at 37° C.",25 µg/mL
same,MIC against P. vulgaris,"[6]; Proteus vulgaris, 10 h cultivation at 37° C.",25 µg/mL
same,MIC against P. mirabilis,"[7]; Proteus mirabilis, 10 h cultivation at 37° C.",50 µg/mL
same,MIC against A. hydrophila,"[8]; Aeromonas hydrophila, 10 h cultivation at 37° C.",50 µg/mL
same,MIC against M. catarrhalis,"[9]; Moraxella catarrhalis, 10 h cultivation at 37° C.",25 µg/mL
same,MIC against E. coli BL21,[10]; [21],25 µg/mL
same,MIC against S. marcescens,"[11]; Serratia marcescens, 10 h cultivation at 37° C.",12.5 µg/mL

# — patent publication US9833497B2, “Human originated EGF domain proteins and use of the same” (CHENGDU SOURCEBIO LIMITED-LIABILITY COMPANY, priority 2013, dated 2017)
